Test results as given in US20230172950A1 (priority 2020, published 2023).

Experiments:
Whole Blood = assay: Ex vivo whole blood incubation (Study 6), immune cell counts; format: cell-based; conditions: concentrations between 100 uM up to 500 uM
Method: (§1) The profound in vivo activity that we observe in naïve mice and in cancer models must be mediated through the mobilized supercharged Natural Killer T cells, T cells and dendritic cells after AVM0703 HED 6 mg/kg and higher.

Splenocytes = assay: Ex vivo splenocyte incubation (Study 24), viability by flow cytometry; format: cell-based; conditions: concentrations between 100 uM up to 500 uM
Method: as §1
Splenocytes were cultured for 16 hours prior to assay execution.

[1] = tested on: lymphocytes, monocytes, NKT cells, T cells, dendritic cells; conditions: in vivo, HED of 18 mg/kg and higher
[2] = in vivo; cited from earlier work

SMILES | response of ex vivo whole blood (Whole Blood) | response of isolated splenocytes (Splenocytes) | effects on colon, pancreas or bone [1] | biologic half-life [2]
C[C@@H]1C[C@H]2[C@@H]3CCC4=CC(=O)C=C[C@]4(C)[C@@]3(F)[C@@H](O)C[C@]2(C)[C@@]1(O)C(=O)CO [dexamethasone base, dexamethasone] | no response | no response | no effects | –
C[C@]12C=CC(=O)C=C1CC[C@@H]1[C@@H]2C(=O)C[C@@]2(C)[C@H]1CC[C@]2(O)C(=O)CO [prednisone] | – | – | – | about 20 hours
